Consider 19 compounds from PubChem BioAssay AID264 (DTP/NCI, 2004).

“And” between values parts separate entries of the source, which are not always exact repeats. Identical values can stand only once. Inconclusive results are not listed.

This assay has as its system nude mice, LX-1 lung xenograft intrarenal, tumor weight T/C. Put plainly: NCI In Vivo Anticancer Drug Screen. Data for tumor model Human Lung LX-1 Xenograft (intrarenal inoculation) in NU/NU Swiss (nude) mice. As to conditions: endpoint: mean tumor weight change, higher = larger tumour. In a few lines: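 In vivo, transplantable tumor; compound vs vehicle arms; tumor size measured; value = T/C.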
A general note: Xenograft models place foreign cells or tissue in a host animal.

Where [1] appears, read: dose: 25.0 mg/kg/injection, schedule: Q01DX010 (sc), vehicle: saline with Tween-80.
The mark [2] stands for this setting: dose: 50.0 mg/kg/injection, schedule: Q01DX010 (sc), vehicle: saline with Tween-80.
The mark [3] stands for this setting: dose: 100.0 mg/kg/injection, schedule: Q01DX010 (sc), vehicle: saline with Tween-80.
[4] abbreviates: dose: 200.0 mg/kg/injection, schedule: Q01DX010 (sc), vehicle: saline with Tween-80.
Setting [5] is: dose: 400.0 mg/kg/injection, schedule: Q01DX010 (sc), vehicle: saline with Tween-80.
[6] abbreviates: dose: 600.0 mg/kg/injection, schedule: Q04DX003 (sc), vehicle: Klucel (hydroxypropylcellulose) (HPC).
Setting [7] is: dose: 1200.0 mg/kg/injection, schedule: Q04DX003 (sc), vehicle: Klucel (hydroxypropylcellulose) (HPC).
[8] abbreviates: dose: 75.0 mg/kg/injection, schedule: Q04DX003 (sc), vehicle: saline with Tween-80.
[9] abbreviates: dose: 150.0 mg/kg/injection, schedule: Q04DX003 (sc), vehicle: saline with Tween-80.
The mark [10] stands for this setting: dose: 300.0 mg/kg/injection, schedule: Q04DX003 (sc), vehicle: saline with Tween-80.
Where [11] appears, read: dose: 6.25 mg/kg/injection, schedule: Q01DX010 (sc), vehicle: saline with Tween-80.

With `CC(=O)Nc1ccc(C(=O)C=O)cc1`, the T/C runs as follows: under setting [1], 69 % of control; under setting [2], 103 % of control; under setting [3], 35 % of control; under setting [4], 45 % of control.
On to `O=c1[nH]c(=O)n([C@H]2CCCO2)cc1F`, for which the T/C (dose: 50.0 mg/kg/injection, schedule: Q01DX010 (sc), vehicle: Klucel (hydroxypropylcellulose) (HPC)) is 37 % of control; the T/C (dose: 200.0 mg/kg/injection, schedule: Q01DX010 (sc), vehicle: Klucel (hydroxypropylcellulose) (HPC)) was 93 % of control; the T/C (dose: 400.0 mg/kg/injection, schedule: Q01DX010 (sc), vehicle: Klucel (hydroxypropylcellulose) (HPC)) is 103 % of control.
As to `OCC1OC(n2cnc3c2NC=NC[C@H]3O)CC1O` (stereo partly specified), the T/C reads like this: (dose: 1.0 mg/kg/injection, schedule: Q01DX010 (sc), vehicle: water) 122 % of control; (dose: 2.0 mg/kg/injection, schedule: Q01DX010 (sc), vehicle: water) 68 % of control and 70 % of control and 91 % of control.
`COC1=C(NC(C)=O)C(=O)c2nc(-c3nc(C(=O)O)c(C)c(-c4ccc(OC)c(OC)c4O)c3N)ccc2C1=O`: the T/C reads like this: (dose: 25.0 mg/kg/injection, schedule: Q04DX003 (sc), vehicle: Klucel (hydroxypropylcellulose) (HPC)) 63 % of control; (dose: 50.0 mg/kg/injection, schedule: Q04DX003 (sc), vehicle: Klucel (hydroxypropylcellulose) (HPC)) 55 % of control; (dose: 100.0 mg/kg/injection, schedule: Q04DX003 (sc), vehicle: Klucel (hydroxypropylcellulose) (HPC)) 40 % of control.
As for `Cc1cc(O)c(N=Nc2ccc(C(=O)O)cc2)cc1C`, the T/C is, setting by setting: under setting [3], 77 % of control; under setting [4], 67 % of control; under setting [5], 62 % of control; (dose: 800.0 mg/kg/injection, schedule: Q01DX010 (sc), vehicle: saline with Tween-80) 59 % of control.
Regarding `COC(=O)c1ccoc1`, the T/C (dose: 150.0 mg/kg/injection, schedule: Q04DX003 (sc), vehicle: saline) was 107 % of control.
With `CCC[CH2][Sn]1([CH2]CCC)[O]C2C(CO)OC(n3ccc(N)nc3=O)C2[O]1` (stereo unspecified), the T/C (dose: 12.0 mg/kg/injection, schedule: Q04DX003 (sc), vehicle: Klucel (hydroxypropylcellulose) (HPC)) is 82 % of control; the T/C (dose: 24.0 mg/kg/injection, schedule: Q04DX003 (sc), vehicle: Klucel (hydroxypropylcellulose) (HPC)) is 66 % of control; the T/C (dose: 48.0 mg/kg/injection, schedule: Q04DX003 (sc), vehicle: Klucel (hydroxypropylcellulose) (HPC)) is 115 % of control.
For `CCC1OCC(C(Cl)CCl)O1` (stereo unspecified), the T/C runs as follows: (dose: 300.0 mg/kg/injection, schedule: Q04DX003 (sc), vehicle: Klucel (hydroxypropylcellulose) (HPC)) 115 % of control; under setting [6], 88 % of control; under setting [7], 26 % of control.
Consider `CS(=O)(=O)c1ncc(Br)cn1`, for which the T/C under setting [8] was 100 % of control, the T/C under setting [9] was 57 % of control and the T/C under setting [10] is 84 % of control.
Regarding `C[C@H](N)C(=O)N[C@@H]1[C@H]2C(=C(O)C[C@@H](O)[C@@H]2O)C(=O)O[C@]1(C)C(Cl)Cl`, the T/C is, setting by setting: (dose: 1.5 mg/kg/injection, schedule: Q04DX003 (sc), vehicle: Klucel (hydroxypropylcellulose) (HPC)) 108 % of control; (dose: 3.0 mg/kg/injection, schedule: Q04DX003 (sc), vehicle: Klucel (hydroxypropylcellulose) (HPC)) 107 % of control; (dose: 6.0 mg/kg/injection, schedule: Q04DX003 (sc), vehicle: Klucel (hydroxypropylcellulose) (HPC)) 81 % of control.
`CC[C@]1(O)C[C@H]2CN(CCc3c([nH]c4ccccc34)[C@@](C(=O)OC)(c3cc4c(cc3OC)N(C)[C@H]3[C@@](O)(C(=O)OC)[C@H](OC(C)=O)[C@]5(CC)C=CCN6CC[C@]43[C@@H]65)C2)C1`: the T/C is 52 % of control (dose: 0.25 mg/kg/injection, schedule: Q01DX010 (sc), vehicle: saline); 68 % of control (dose: 1.0 mg/kg/injection, schedule: Q01DX010 (sc), vehicle: saline); 28 % of control (dose: 2.0 mg/kg/injection, schedule: Q01DX010 (sc), vehicle: saline).
For `COc1cccc2c1C(=N)c1c(O)c3c(c(O)c1C2=O)C[C@@](O)(C(C)=O)C[C@@H]3OC1CC(N)C(O)C(C)O1` (stereo partly specified), the T/C (dose: 24.0 mg/kg/injection, schedule: Q04DX003 (sc), vehicle: water) is 46 % of control; the T/C (dose: 48.0 mg/kg/injection, schedule: Q04DX003 (sc), vehicle: water) is 10 % of control; the T/C (dose: 96.0 mg/kg/injection, schedule: Q04DX003 (sc), vehicle: water) is 23 % of control.
Turning to `CCCCCCCC(=O)[O][Hg][CH2]C1COC([CH2][Hg][O]C(=O)CCCCCCC)CO1` (stereo unspecified), the T/C was 224 % of control under setting [11]; 106 % of control under setting [1]; 75 % of control and 79 % of control under setting [2]; 61 % of control under setting [3]; 42 % of control under setting [4]; 24 % of control under setting [5].
Turning to `C=C1C(=O)C23[C@H](O)C1CC[C@H]2[C@]12COC3(O)[C@@H](O)[C@@H]1C(C)(C)CC[C@@H]2O`, the T/C runs as follows: (dose: 18.75 mg/kg/injection, schedule: Q04DX003 (sc), vehicle: Klucel (hydroxypropylcellulose) (HPC)) 105 % of control; (dose: 37.5 mg/kg/injection, schedule: Q04DX003 (sc), vehicle: Klucel (hydroxypropylcellulose) (HPC)) 49 % of control.
For the compound `Cc1cn(C2CC3[O][Sn]([c]4ccccc4)([c]4ccccc4)[O]CC3O2)c(=O)[nH]c1=O` (stereo unspecified), the T/C is, setting by setting: (dose: 600.0 mg/kg/injection, schedule: Q04DX003 (sc), vehicle: saline) 107 % of control; (dose: 2400.0 mg/kg/injection, schedule: Q04DX003 (sc), vehicle: saline) 47 % of control.
With `OCC1OC(n2cnc3c(Cl)ncnc32)C(O)C1O` (stereo unspecified), the T/C (dose: 100.0 mg/kg/injection, schedule: Q01DX010 (sc), vehicle: saline) was 74 % of control; the T/C (dose: 200.0 mg/kg/injection, schedule: Q01DX010 (sc), vehicle: saline) was 96 % of control and 103 % of control; the T/C (dose: 400.0 mg/kg/injection, schedule: Q01DX010 (sc), vehicle: saline) was 80 % of control and 99 % of control; the T/C (dose: 800.0 mg/kg/injection, schedule: Q01DX010 (sc), vehicle: saline) is 112 % of control.
Consider `CC1=C(/C=C/C(C)=C/C=C/C(C)=C/C=O)C(C)(C)CCC1`, for which the T/C is, setting by setting: under setting [8], 94 % of control; under setting [9], 68 % of control; under setting [10], 56 % of control and 74 % of control; (dose: 1200.0 mg/kg/injection, schedule: Q04DX003 (sc), vehicle: saline with Tween-80) 57 % of control.
Take `CC1(CO)C(O)CCC2(C)C1CCC1CC3CC12CCC3(O)CO` (stereo unspecified): the T/C under setting [11] was 181 % of control; the T/C (dose: 12.5 mg/kg/injection, schedule: Q01DX010 (sc), vehicle: saline with Tween-80) is 58 % of control; the T/C under setting [1] was 78 % of control; the T/C (dose: 600.0 mg/kg/injection, schedule: Q01DX010 (sc), vehicle: saline with Tween-80) was 67 % of control.
As to `Cc1ccc(C2NC(=O)c3ccccc3N2)s1` (stereo unspecified), the T/C under setting [6] is 106 % of control; the T/C under setting [7] is 86 % of control; the T/C (dose: 2400.0 mg/kg/injection, schedule: Q04DX003 (sc), vehicle: Klucel (hydroxypropylcellulose) (HPC)) was 82 % of control; the T/C (dose: 4800.0 mg/kg/injection, schedule: Q04DX003 (sc), vehicle: Klucel (hydroxypropylcellulose) (HPC)) was 94 % of control.
